# In publication PMC5797111, “Molecular and Functional Characterization of pheromone binding protein 1 from the Oriental Fruit Moth, Grapholita molesta (Busck)” (Scientific Reports, 2018):
# Columns and labels:
# [1] = target: GmolPBP2; set-up: method as in doi:10.1016/S2095-3119(13)60686-3; details: cited from earlier work
# [2] = target: T1, GmolPBP1 (Grapholita molesta, UniProt A0A2R4SBD6); assay: Fluorescence competitive binding assay with 1-NPN as probe; details: for binding affinity to GmolPBP1 (in words): displacement of 1-NPN; for binding affinity to GmolPBP1 (in words) / IC50: ligands 1 to 10 μM; for IC50 / Ki: 1-NPN and GmolPBP1 both at 2 μM; for IC50: read-out: IC50 (ligand concentration displacing half of the initial fluorescence intensity of the GmolPBP1/1-NPN complex); for Ki: calculated from the IC50 value, read-out: Ki (dissociation constant)
# T1 sequence (A0A2R4SBD6 entry or part of it): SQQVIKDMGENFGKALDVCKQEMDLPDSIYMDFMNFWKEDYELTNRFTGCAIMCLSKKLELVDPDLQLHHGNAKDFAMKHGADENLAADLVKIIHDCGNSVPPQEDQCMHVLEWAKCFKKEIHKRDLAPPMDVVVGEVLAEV
# Method: (§1) To understand the binding properties of the GmolPBP1 with four sex pheromone components of G. molesta and the Codlemone of C. pomonella. We expressed and purified the protein (Figure S1). Then, a competitive binding assay was performed with 1-NPN as the fluorescence probe. The probe was excited at 337 nm and emission spectra were recorded between 370 and 500 nm. The fluorescent intensity of the 1-NPN alone was fairly low, then a strong blue shift, and peaked at about 410 nm with the presence of GmolPBP1. The intensity of this peak was used to determine the dissociation constant of the GmolPBP1/1-NPN complex.
# The displacement of 1-NPN by different sex pheromone components was measured for GmolPBP1 in the competitive binding assy. These ligands included the four sex pheromone components of G. molesta (Z)-8-dodecenyl acetate, (E)-8-dodecenyl acetate, (Z)-8-dodecenyl alcohol and 1-dodecanol as well as the C. pomonella Codlemone. […] The dissociation constants for these three compounds are 1.73 ± 0.31, 2.25 ± 0.63 and 1.88 ± 0.25 μM, respectively.
# Emission fluorescence spectra were performed on an F-4600 fluorescence Spectrophotometer (Hitachi, Japan) in a 1 cm light path quartz cuvette with 10 nm slit width for both excitation and emission. The excitation wavelength was set at 337 nm and emission spectra were recorded between 370 and 500 nm. The fluorescent probe N-phenyl-1-naphthylamine (1-NPN) and the ligands used in the binding assay were dissolved in spectrophotometric-grade methanol to yield a 1-mM stock solution (for the sources of these chemicals, see Table S1). To determine the dissociation constant between 1-NPN and GmolPBP1, 2 μM GmolPBP1 dissolved in 20 mM Tris-HCl pH 7.4 was titrated with 1 mM 1-NPN to final concentrations of 2–16 μM. The fluorescence intensities at the maximum fluorescence emission between 370 and 500 nm were plotted against the concentrations of added 1-NPN. The curve was linearized using Scatchard plots. The concentrations of bound 1-NPN were evaluated from the values of fluorescence intensity assuming that the protein was 100% active with a stoichiometry of 1:1 (protein: ligand) at saturation. The affinities of the selected ligands were measured by competitive binding assays by adding the ligands from 1 to 10 μM into the 1-NPN/GmolPBP1 solution (both at 2 μM). The emission spectra were recorded between 370 and 500 nm and the maximum fluorescence intensities were plotted against the ligand concentrations after normalization relative to the intensity at zero ligand. For these competitor ligands, the dissociation constants were computed from the corresponding IC50 values using the quation: Ki = [IC50]/(1 + [1-NPN]/K1-NPN), where [1-NPN] is the free concentration of 1-NPN and K1-NPN is the dissociation constant of the protein complex/1-NPN. All values reported were collected in three independent measurements.
# [3] = target: T1, GmolPBP1; assay: 1-NPN fluorescence binding (titration, Scatchard plot); details: 2 μM GmolPBP1 in 20 mM Tris-HCl pH 7.4, 1-NPN 2–16 μM; read-out: dissociation constant of the GmolPBP1/1-NPN complex
# Method: as §1
# Emission fluorescence spectra were performed on an F-4600 fluorescence Spectrophotometer (Hitachi, Japan) in a 1 cm light path quartz cuvette with 10 nm slit width for both excitation and emission. The excitation wavelength was set at 337 nm and emission spectra were recorded between 370 and 500 nm. […] The fluorescence intensities at the maximum fluorescence emission between 370 and 500 nm were plotted against the concentrations of added 1-NPN. […] The concentrations of bound 1-NPN were evaluated from the values of fluorescence intensity assuming that the protein was 100% active with a stoichiometry of 1:1 (protein: ligand) at saturation. […]
# [4] = test system: CpomPBP1; set-up: method as in PMID 27491022, PMID 27709920; details: cited from earlier work
# [5] = test system: male G. molesta; set-up: method as in earlier work; details: added to blend of (Z)-8-dodecenyl acetate (85.5%), (E)-8-dodecenyl acetate (5.5%) and (Z)-8-dodecenyl alcohol (9%); cited from earlier work
# [6] = test system: CpomPBP2; set-up: method as in PMID 27491022, PMID 27709920; details: cited from earlier work
binding affinity to GmolPBP1 (in words) [2],IC50 [2] [µM],Ki [2] [µM],SMILES,Ki [1] [µM],Kd [3] [µM],affinity to CpomPBP1 (in words) [4],increase of trap catches of male G. molesta over the G. molesta blend alone [5],affinity to CpomPBP2 (in words) [6]
strong affinity,3.2 ± 0.89,2.25 ± 0.63,CCCCCCCCCCCCO [1-dodecanol],,,,,
,,,"c1ccc(Nc2cccc3ccccc23)cc1 [1-NPN, N-phenyl-1-naphthylamine]",,2.41 ± 0.25,,,
strong affinity,2.46 ± 0.43,1.73 ± 0.31,CCC/C=C\CCCCCCCO [(Z)-8-dodecenyl alcohol],,,,,
strong affinity,2.66 ± 0.35,1.88 ± 0.25,"C/C=C/C=C/CCCCCCCO [Codlemone, E, E-8, 10-Dodecadienol]",,,strong affinity,two- to three-fold,poor affinity

SMILES,binding affinity to GmolPBP1 (in words) [2],IC50 [2] [µM],Ki [2] [µM],Ki [1] [µM],Kd [3] [µM],affinity to CpomPBP1 (in words) [4],increase of trap catches of male G. molesta over the G. molesta blend alone [5],affinity to CpomPBP2 (in words) [6]
CCC/C=C\CCCCCCCOC(C)=O [(Z)-8-dodecenyl acetate],could not displace half of the total 1-NPN,,,1.09 ± 0.04,,,,
CCC/C=C/CCCCCCCOC(C)=O [(E)-8-dodecenyl acetate],could not displace half of the total 1-NPN,,,1.1 ± 0.05,,,,
